Source: patent publication US10669272B2, “Substituted naphthyridinone compounds useful as T cell activators” (BRISTOL-MYERS SQUIBB COMPANY, priority 2018, dated 2020)
Where a name gives a salt, the structure may show the parent alone. Read-outs that look alike come from different tables or passages of the source.

Tests used:
[1] = target: T1, human DGKα (Homo sapiens, UniProt P23743); assay: DGKα LIPGLO assay (extruded liposome substrate), in vitro DGK inhibition; type: biochemical; conditions: read-out: DGKa LIPGLO IC50
T1 construct: TVMV protease cleavage site (C); Hexa-His (C); made in house; host or cells: Sf9 insect cells (baculovirus, Bac-to-Bac)

[2] = target: T2, human DGKζ (Homo sapiens, UniProt Q13574); assay: DGKζ LIPGLO assay (extruded liposome substrate), in vitro DGK inhibition; type: biochemical; conditions: read-out: DGKz LIPGLO IC50
T2 construct: TVMV protease cleavage site (C); Hexa-His (C); made in house; host or cells: Sf9 insect cells (baculovirus, Bac-to-Bac)

[3] = test system: OT-1 CD8+ T cells with SIINFEKL-loaded MC38 tumor cells; assay: Murine cytotoxic T lymphocyte assay (IFN-γ, OT-1 CTL with MC38 tumor cells); type: cell-based, mouse; conditions: read-out: msCTL INFg IC50
Source text: 5. Murine Cytotoxic T Lymphocyte Assay
An antigen-specific cytolytic T-cell (CTL) assay was developed to evaluate functionally the ability of DGKα and DGKζ inhibitors to enhance effector T cell mediated tumor cell killing activity. CD8+ T-cells isolated from the OT-1 transgenic mouse recognize antigen presenting cells, MC38, that present the ovalbumin derived peptide […]. Recognition of the cognate antigen initiates the cytolytic activity of the OT-1 antigen-specific CD8+ T cells.
Functional CTL cells were generated as follows: OT-1 splenocytes from 8-12 week old mice were isolated and expanded in the presence of the […] peptide at 1 μg/mL and mIL2 at 10 U/mL. After three days, fresh media with […] was added. On day 5 of the expansion, the CD8+ T cells were isolated and ready for use. Activated CTL cells may be stored frozen for 6 months. Separately, one million MC38 tumor cells were pulsed with 1 μg/mL of […]-OVA peptide for 3 hours at 37° C. The cells were washed (3×) with fresh media to remove excess peptide. Finally, CTL cells that were pretreated with DGK inhibitors for 1 hour in a 96-well U bottom plate were combined with the antigen loaded MC38 tumor cells at a 1:10 ratio. The cells were then spun at 700 rpm for 5 min and placed in an incubator overnight at 37° C. After 24 hours, the supernatant was collected for analysis of IFN-γ cytokine levels by AlphaLisa purchased from Perkin Elmer.

[4] = test system: Human venous whole blood; assay: Human whole blood IFN-γ assay; type: cell-based;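 further: blood from healthy donors exposed to compound for 1 h before stimulation with anti-CD3 and anti-CD28 at 1 µg/mL each, IFN-γ quantified in supernatant by AlphaLISA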
[5] = Homo sapiens, 24 h, human whole blood, anti-CD3 plus anti-CD28, 24 hours, 3 μM reference compound = 100% activation, read-out: INFg Whole Blood Normalized Agonist EC50
[6] = human whole blood, normalized to 3 μM reference compound with anti-CD3 plus anti-CD28 as 100% activation, read-out: INFg Whole Blood Normalized Agonist EC50
[7] = Homo sapiens, 24 h, human whole blood, normalized to 3 μM reference compound with anti-CD3 plus anti-CD28 as 100% activation, read-out: INFg Whole Blood Normalized Agonist EC50

T2 sequence (Q13574 with tags, fused parts or gaps isoform Q13574-4): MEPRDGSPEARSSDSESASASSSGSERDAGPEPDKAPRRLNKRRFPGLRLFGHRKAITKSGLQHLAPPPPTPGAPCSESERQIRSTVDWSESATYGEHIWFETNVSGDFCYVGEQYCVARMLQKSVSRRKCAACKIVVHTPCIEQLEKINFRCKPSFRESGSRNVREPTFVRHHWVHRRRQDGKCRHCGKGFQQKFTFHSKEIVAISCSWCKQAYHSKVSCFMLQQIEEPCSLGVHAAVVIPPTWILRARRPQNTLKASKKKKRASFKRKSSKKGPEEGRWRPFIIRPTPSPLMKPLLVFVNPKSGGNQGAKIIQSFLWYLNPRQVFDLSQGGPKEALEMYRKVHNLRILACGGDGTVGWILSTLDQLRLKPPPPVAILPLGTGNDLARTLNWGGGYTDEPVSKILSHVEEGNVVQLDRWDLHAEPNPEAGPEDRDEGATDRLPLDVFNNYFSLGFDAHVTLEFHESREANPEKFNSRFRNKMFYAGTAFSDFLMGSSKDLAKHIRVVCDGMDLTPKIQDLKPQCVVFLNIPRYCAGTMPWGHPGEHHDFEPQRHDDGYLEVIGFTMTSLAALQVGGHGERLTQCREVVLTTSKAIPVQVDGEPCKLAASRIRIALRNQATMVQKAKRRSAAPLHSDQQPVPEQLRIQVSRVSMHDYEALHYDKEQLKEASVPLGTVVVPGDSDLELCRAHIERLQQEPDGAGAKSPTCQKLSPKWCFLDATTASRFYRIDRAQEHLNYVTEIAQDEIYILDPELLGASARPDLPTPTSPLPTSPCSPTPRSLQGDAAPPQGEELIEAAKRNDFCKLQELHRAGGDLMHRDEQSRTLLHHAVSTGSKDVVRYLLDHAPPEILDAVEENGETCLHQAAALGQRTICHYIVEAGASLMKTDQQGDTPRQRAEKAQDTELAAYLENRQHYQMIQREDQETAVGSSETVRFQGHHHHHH
T1 sequence (P23743 with tags, fused parts or gaps): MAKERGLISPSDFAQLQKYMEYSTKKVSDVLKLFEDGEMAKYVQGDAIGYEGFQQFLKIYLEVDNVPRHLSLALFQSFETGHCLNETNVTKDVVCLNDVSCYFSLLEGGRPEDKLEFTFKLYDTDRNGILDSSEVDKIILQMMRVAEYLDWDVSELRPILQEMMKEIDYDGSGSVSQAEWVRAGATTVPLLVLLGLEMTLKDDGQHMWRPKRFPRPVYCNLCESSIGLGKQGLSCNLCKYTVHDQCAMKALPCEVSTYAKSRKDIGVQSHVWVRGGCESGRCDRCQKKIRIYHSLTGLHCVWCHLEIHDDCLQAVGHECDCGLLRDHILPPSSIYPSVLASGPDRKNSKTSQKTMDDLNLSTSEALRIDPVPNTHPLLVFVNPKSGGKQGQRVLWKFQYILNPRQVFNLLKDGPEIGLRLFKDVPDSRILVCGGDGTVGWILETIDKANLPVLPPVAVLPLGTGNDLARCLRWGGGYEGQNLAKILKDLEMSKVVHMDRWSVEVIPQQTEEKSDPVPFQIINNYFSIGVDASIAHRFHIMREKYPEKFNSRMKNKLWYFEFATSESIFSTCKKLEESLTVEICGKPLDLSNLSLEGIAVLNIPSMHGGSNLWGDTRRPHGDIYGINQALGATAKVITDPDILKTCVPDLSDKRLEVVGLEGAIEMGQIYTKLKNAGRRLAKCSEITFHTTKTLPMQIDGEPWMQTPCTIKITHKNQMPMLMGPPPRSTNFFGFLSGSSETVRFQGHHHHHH

Row | IC50 ([1]; liposome (LIPGLO) assay) [µM] | IC50 ([2]; liposome (LIPGLO) assay) [µM] | SMILES | IC50 [3] [µM] | IC50 ([3]; Mus musculus, MC-38) [µM] | also measured
1 | 0.99 | 0.4 | COC(=O)C1CN(c2c(F)c(=O)n(C)c3ccc(C#N)nc23)CCN1C(c1ccc(F)cc1)c1ccc(F)cc1 (single isomer, unassigned) [Example 75, Methyl 1-(bis(4-fluorophenyl)methyl)-4-(6-cyano-3-fluoro-1-methyl-2-oxo-1,2-dihydro-1,5-naphthyridin-4-yl)piperazine-2-carboxylate] | 0.023 | – | –
2 | 40 | 0.76 | COC(=O)C1CN(c2cc(=O)n(C)c3ccc(C#N)nc23)CCN1C(c1ccc(F)cc1)c1ccc(F)cc1OC (single isomer, unassigned) [Example 72, Methyl 4-(6-cyano-1-methyl-2-oxo-1,2-dihydro-1,5-naphthyridin-4-yl)-1-((4-fluoro-2-methoxyphenyl)(4-fluorophenyl)methyl)piperazine-2-carboxylate] | 0.078 | – | EC50 [4, 6]: 1.2 µM
3 | 0.52 | 0.31 | COC(=O)C1CN(c2c([N+](=O)[O-])c(=O)n(C)c3ccc(C#N)nc23)CCN1C(c1ccc(F)cc1)c1ccc(F)cc1 (single isomer, unassigned) [Example 73, Methyl 1-(bis(4-fluorophenyl)methyl)-4-(6-cyano-1-methyl-3-nitro-2-oxo-1,2-dihydro-1,5-naphthyridin-4-yl)piperazine-2-carboxylate] | – | 0.15 | EC50 [4, 7]: 0.29 µM
4 | 210 | 4.8 | COc1cc(F)ccc1C(c1ccc(F)cc1)N1C[C@H](C)N(c2c([N+](=O)[O-])c(=O)n(C)c3ccc(C#N)nc23)C[C@H]1C (single isomer, unassigned) [Example 122] | – | 3.8 | EC50 [4, 7]: 10 µM
5 | 18 | 0.96 | COc1cc(F)ccc1C(c1ccc(F)cc1)N1CCN(c2cc(=O)n(C)c3ccc(C#N)nc23)[C@@H](C)C1 (single isomer, unassigned) [Example 130] | 0.75 | – | EC50 [4, 6]: 4 µM
6 | 28 | 6.6 | CC(C)C(=O)C1CN(c2cc(=O)n(C)c3ccc(C#N)nc23)CCN1C(c1ccc(F)cc1)c1ccc(F)cc1 (single isomer, unassigned) [Example 87, 8-(4-(bis(4-fluorophenyl)methyl)-3-isobutyrylpiperazin-1-yl)-5-methyl-6-oxo-5,6-dihydro-1,5-naphthyridine-2-carbonitrile] | 0.45 | – | –
7 | 240 | 240 | CC(C)C(C)(F)C1CN(c2cc(=O)n(C)c3ccc(C#N)nc23)CCN1C(c1ccc(F)cc1)c1ccc(F)cc1 (single isomer, unassigned) [Example 90, 8-(4-(bis(4-fluorophenyl)methyl)-3-(2-fluoro-3-methylbutan-2-yl)piperazin-1-yl)-5-methyl-6-oxo-5,6-dihydro-1,5-naphthyridine-2-carbonitrile, TFA] | – | 4.8 | EC50 [4, 7]: 20 µM
8 | 21 | 0.85 | COC(=O)C1CN(c2cc(=O)n(C)c3ccc(C#N)nc23)CCN1C(c1ccc(F)cc1)c1ccc(F)cc1OC (single isomer, unassigned) [Example 69, Methyl 4-(6-cyano-1-methyl-2-oxo-1,2-dihydro-1,5-naphthyridin-4-yl)-1-((4-fluoro-2-methoxyphenyl)(4-fluorophenyl)methyl)piperazine-2-carboxylate] | 0.22 | – | EC50 [4, 6]: 2.5 µM
9 | 0.67 | 240 | Cn1c(=O)cc(N2CCN(C(c3ccc(F)cc3)c3ccc(F)cc3)C(C(C)(C)F)C2)c2nc(C#N)ccc21 (single isomer, unassigned) [Example 80, 8-(4-(bis(4-fluorophenyl)methyl)-3-(2-fluoropropan-2-yl)piperazin-1-yl)-5-methyl-6-oxo-5,6-dihydro-1,5-naphthyridine-2-carbonitrile] | 3.1 | – | EC50 [4, 7]: 10 µM
10 | 230 | 31 | Cc1nnc(C2CN(c3cc(=O)n(C)c4ccc(C#N)nc34)CCN2C(c2ccc(F)cc2)c2ccc(F)cc2)o1 (stereo not shown) [Example 126, 8-(4-(bis(4-fluorophenyl)methyl)-3-(5-methyl-1,3,4-oxadiazol-2-yl)piperazin-1-yl)-5-methyl-6-oxo-5,6-dihydro-1,5-naphthyridine-2-carbonitrile] | – | 10 | EC50 [4, 7]: 20 µM
11 | 5.4 | 6.4 | Cn1c(=O)cc(N2CCN(C(c3ccc(F)cc3)c3ccc(F)cc3)CC2C#N)c2nc(C#N)ccc21 (single isomer, unassigned) [Example 143, 8-(4-(bis(4-fluorophenyl)methyl)-2-cyanopiperazin-1-yl)-5-methyl-6-oxo-5,6-dihydro-1,5-naphthyridine-2-carbonitrile] | – | 0.33 | EC50 [4, 7]: 5.7 µM

Second part, the compound before the results:

Row | SMILES | IC50 ([1]; liposome (LIPGLO) assay) [µM] | IC50 ([2]; liposome (LIPGLO) assay) [µM] | IC50 [3] [µM] | IC50 ([3]; Mus musculus, MC-38) [µM] | also measured
12 | C[C@@H]1CN(c2c(C#N)c(=O)n(C)c3ccc(C#N)nc23)CCN1Cc1ccc(F)cc1F [Example 985] | – | – | – | – | IC50 ([1]; DGKα liposome (LIPGLO) assay): 2.2 µM; EC50 [4, 5]: 9.7 µM; IC50 ([2]; DGKζ liposome (LIPGLO) assay): 3 µM; IC50 ([3]; Mus musculus, MC-38, murine CTL, IFN-γ): 4.1 µM
13 | C[C@H]1CN(c2c(Cl)c(=O)n(C)c3ccc(C#N)nc23)CCN1C(c1ccc(F)cc1)c1ccc(F)cc1 [Example 36, (S)-8-(4-(bis(4-fluorophenyl)methyl)-3-methylpiperazin-1-yl)-7-chloro-5-methyl-6-oxo-5,6-dihydro-1,5-naphthyridine-2-carbonitrile] | – | – | – | 1.2 | –
14 | C[C@@H]1CN(C(c2ccc(F)cc2)c2ccc(F)cc2)[C@H](C)CN1c1cc(=O)n(C)c2ccc(C#N)nc12 [Example 131, 8-((2R,5R)-4-(bis(4-fluorophenyl)methyl)-2,5-dimethylpiperazin-1-yl)-5-methyl-6-oxo-5,6-dihydro-1,5-naphthyridine-2-carbonitrile] | – | – | – | 5.9 | –
15 | CC[C@H]1CN(C(c2ccc(F)cc2)c2ccc(F)cc2)CCN1c1cc(=O)n(C)c2ccc(C#N)nc12 [Example 127, (S)-8-(4-(bis(4-fluorophenyl)methyl)-2-ethylpiperazin-1-yl)-5-methyl-6-oxo-5,6-dihydro-1,5-naphthyridine-2-carbonitrile] | – | – | – | 0.36 | EC50 ([4]; Homo sapiens, 24 h, read-out: INFg Whole Blood Normalized Agonist EC50, human whole blood, normalized to 3 μM reference compound with anti-CD3 plus anti-CD28 as 100% activation): 4.3 µM
16 | Cn1c(=O)cc(N2CCN(C(c3ccc(F)cc3)c3ccc(F)cc3)CC2c2ccccc2)c2nc(C#N)ccc21 (single isomer, unassigned) [Example 156, 8-(4-(bis(4-fluorophenyl)methyl)-2-phenylpiperazin-1-yl)-5-methyl-6-oxo-5,6-dihydro-1,5-naphthyridine-2-carbonitrile] | 8.5 | 9.8 | 0.4 | – | EC50 [4, 6]: 6.9 µM
17 | Cc1ccc(C(C)N2CCN(c3c(C#N)c(=O)n(C)c4ccc(C#N)nc34)C[C@H]2C)cc1 (single isomer, unassigned) [Example 952] | – | – | – | – | IC50 ([1]; DGKα liposome (LIPGLO) assay): 0.59 µM; EC50 [4, 5]: 3 µM; IC50 ([2]; DGKζ liposome (LIPGLO) assay): 2.3 µM; IC50 ([3]; murine CTL, IFN-γ): 5.9 µM
18 | C[C@@H]1CN(c2c(C#N)c(=O)n(C)c3ccc(C#N)nc23)CCN1C(c1ccc(Cl)cc1)c1ccc(Cl)cc1 [Example 103, (R)-8-(4-(bis(4-chlorophenyl)methyl)-3-methylpiperazin-1-yl)-5-methyl-6-oxo-5,6-dihydro-1,5-naphthyridine-2,7-dicarbonitrile] | – | – | – | 0.076 | –
19 | C[C@@H]1CN(c2cc(=O)n(C)c3ccc(C#N)nc23)[C@@H](C)CN1C(c1ccc(F)cc1)c1ccc(F)cc1 [Example 3, 8-((2S,5R)-4-(bis(4-fluorophenyl)methyl)-2,5-dimethylpiperazin-1-yl)-5-methyl-6-oxo-5,6-dihydro-1,5-naphthyridine-2-carbonitrile] | – | – | – | 0.07 | –
20 | CC[C@@H]1CN(C(c2ccc(F)cc2)c2ccc(F)cc2)CCN1c1cc(=O)n(C)c2ccc(C#N)nc12 [Example 170, (R)-8-(4-(bis(4-fluorophenyl)methyl)-2-ethylpiperazin-1-yl)-5-methyl-6-oxo-5,6-dihydro-1,5-naphthyridine-2-carbonitrile] | – | – | – | 2.6 | –
21 | Cc1ccc(C(C)N2CCN(c3c(C#N)c(=O)n(C)c4ccc(C#N)nc34)C[C@H]2C)cc1 (single isomer, unassigned) [Example 953] | – | – | – | – | IC50 ([1]; DGKα liposome (LIPGLO) assay): 1.1 µM; IC50 ([2]; DGKζ liposome (LIPGLO) assay): 15 µM; IC50 ([3]; murine CTL, IFN-γ): 1.7 µM
